Assay results reported in US20260049076A1, “Tertiary Amine Substituted Bicyclic Compounds Useful as T Cell Activators” (BRISTOL-MYERS SQUIBB COMPANY, priority 2022, published 2026).

Key:
human DGKζ = target: T1, human DGKζ (Homo sapiens, UniProt Q13574); test: In vitro DGK inhibition assay, DGKζ liposome (LIPGLO) assay; type: biochemical; conditions: read-out: Enzyme Inhibition DGKzeta IC50
T1 construct: TVMV protease cleavage site (C); Hexa-His (C); made in house; host or cells: Sf9 insect cells (baculovirus)
Procedure: (§1) The DGKα and DGKζ reactions were performed using either extruded liposome (DGKα and DGKζ LIPGLO assays) or detergent/lipid micelle substrate (DGKα and DGKζ assays). The reactions were carried out in 50 mM MOPS pH 7.5, 100 mM NaCl, 10 mM MgCl2, 1 μM CaCl2, and 1 mM DTT (assay buffer). The reactions using a detergent/lipid micelle substrate also contained 50 mM octyl B-D-glucopyranoside. The lipid substrate concentrations were 11 mM PS and 1 mM DAG for the detergent/lipid micelle reactions. The lipid substrate concentrations were 2 mM PS, 0.25 mM DAG, and 2.75 mM PC for the extruded liposome reactions (5 mM total lipid). The reactions were carried out in 150 μM ATP The enzyme concentrations for the DGKα and DGKζ were 5 nM
(§2) The compound inhibition studies were carried out as follows: 25 nL (ADPGLO assay) or 50 nL (LIPGLO assay) droplets of each test compound (top concentration 10 mM with 11 point, 3-fold dilution series for each compound) solubilized in DMSO were transferred to wells of a white 1536 well plate (Corning 3725). A 5 mL enzyme/lipid substrate solution at 2× final reaction concentration was prepared by combining 2.5 mL 4× enzyme solution (20 nM DGKα, or DGKζ (prepared as described below) in assay buffer) and 2.5 mL of either 4× liposome or 4× detergent/lipid micelle solution (compositions described below) and incubated at room temperature for 10 minutes. Next, 1 μL 2× enzyme/lipid substrate solution was added to wells containing the test compound and reactions were initiated with the addition of 1 μL 300 uM ATP. The reactions were allowed to proceed for 2 hr (ADPGLO assay) or 1 hr (LIPGLO assay), after which 2 μL Glo Reagent (Promega V9101) was added and incubated for 40 minutes. Next, 4 μL Kinase Detection Reagent was added and incubated for 30 minutes. Luminescence was recorded using an EnVision microplate reader. […] The compounds were evaluated at 11 concentrations to determine IC50.
(§3) The lipid composition was 5 mol % DAG (Avanti 8008110), 40 mol % PS (Avanti 840035P), and 55 mol % PC (Avanti 850457) at a total lipid concentration of 7-8 mg/mL for the liposome solution. The PC, DAG, and PS were dissolved in chloroform, combined, and dried in vacuo to a thin film. The lipids were hydrated to 20 mM in 50 mM MOPS pH 7.5, 100 mM NaCl, 5 mM MgCl2, and were freeze-thawed five times. The lipid suspension was extruded through a 100 nm polycarbonate filter 10-12 times. […] The liposome preparation was stored at 4° C. for as long as four weeks.
as §3, with “15.2” for “7-8”, “the 4×” for “the”, “eleven” for “10-12”
(§4) Human DGK-alpha-TVMV-His-pFBgate and human DGK-zeta-transcript variant-2-TVMV-His-pFBgate baculovirus samples were generated using the Bac-to-Bac baculovirus expression system (Invitrogen) according to the manufacturer's protocol. […] Baculovirus amplification was achieved using infected Sf9 cells at 1:1500 virus/cell ratios, and grown for 65 hours at 27° C. post-transfection.
(§5) The expression scale up for each protein was carried out in the Cellbag 50L WAVE-Bioreactor System 20/50 from GE Healthcare Bioscience. 12 L of 2×10^6 cells/mL Sf9 cells (Expression System, Davis, CA) grown in ESF921 insect medium (Expression System) were infected with virus stock at 1:200 virus/cell ratios, and grown for 66-68 hours at 27° C. post-infection.

human DGKα = target: T2, human DGKα (Homo sapiens, UniProt P23743); test: In vitro DGK inhibition assay, DGKα liposome (LIPGLO) assay; type: biochemical; conditions: read-out: Enzyme Inhibition DGKalpha IC50
T2 construct: TVMV protease cleavage site (C); Hexa-His (C); made in house; host or cells: Sf9 insect cells (baculovirus)
Procedure: as §1, §2, §3
as §3, with “15.2” for “7-8”, “the 4×” for “the”, “eleven” for “10-12”
as §4, §5

T1 sequence (Q13574 with tags, fused parts or gaps isoform Q13574-4): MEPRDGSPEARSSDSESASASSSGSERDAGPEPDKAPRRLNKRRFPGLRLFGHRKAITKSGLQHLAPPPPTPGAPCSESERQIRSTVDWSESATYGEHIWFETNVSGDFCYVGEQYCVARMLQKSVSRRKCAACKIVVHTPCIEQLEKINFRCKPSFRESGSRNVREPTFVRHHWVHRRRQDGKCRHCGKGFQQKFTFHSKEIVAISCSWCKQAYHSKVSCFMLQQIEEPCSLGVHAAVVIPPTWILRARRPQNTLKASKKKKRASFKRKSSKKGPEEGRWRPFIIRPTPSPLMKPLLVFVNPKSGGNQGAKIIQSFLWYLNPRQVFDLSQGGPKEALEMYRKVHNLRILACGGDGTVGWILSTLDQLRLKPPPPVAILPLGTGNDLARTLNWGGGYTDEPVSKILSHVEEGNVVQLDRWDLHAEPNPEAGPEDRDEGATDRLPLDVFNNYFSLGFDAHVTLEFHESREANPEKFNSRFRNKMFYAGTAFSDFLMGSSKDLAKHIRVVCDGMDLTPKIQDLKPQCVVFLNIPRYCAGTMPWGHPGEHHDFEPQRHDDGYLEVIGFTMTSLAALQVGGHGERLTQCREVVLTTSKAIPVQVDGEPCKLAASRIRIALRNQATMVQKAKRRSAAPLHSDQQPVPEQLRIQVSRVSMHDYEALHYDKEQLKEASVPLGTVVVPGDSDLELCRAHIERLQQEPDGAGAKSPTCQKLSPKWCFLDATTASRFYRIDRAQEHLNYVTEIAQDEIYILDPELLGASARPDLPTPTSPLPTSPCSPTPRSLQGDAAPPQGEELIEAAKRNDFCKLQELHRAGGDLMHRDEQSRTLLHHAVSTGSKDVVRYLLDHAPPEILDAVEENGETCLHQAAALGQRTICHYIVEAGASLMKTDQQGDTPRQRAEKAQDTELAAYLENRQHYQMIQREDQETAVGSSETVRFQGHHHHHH
T2 sequence (P23743 with tags, fused parts or gaps): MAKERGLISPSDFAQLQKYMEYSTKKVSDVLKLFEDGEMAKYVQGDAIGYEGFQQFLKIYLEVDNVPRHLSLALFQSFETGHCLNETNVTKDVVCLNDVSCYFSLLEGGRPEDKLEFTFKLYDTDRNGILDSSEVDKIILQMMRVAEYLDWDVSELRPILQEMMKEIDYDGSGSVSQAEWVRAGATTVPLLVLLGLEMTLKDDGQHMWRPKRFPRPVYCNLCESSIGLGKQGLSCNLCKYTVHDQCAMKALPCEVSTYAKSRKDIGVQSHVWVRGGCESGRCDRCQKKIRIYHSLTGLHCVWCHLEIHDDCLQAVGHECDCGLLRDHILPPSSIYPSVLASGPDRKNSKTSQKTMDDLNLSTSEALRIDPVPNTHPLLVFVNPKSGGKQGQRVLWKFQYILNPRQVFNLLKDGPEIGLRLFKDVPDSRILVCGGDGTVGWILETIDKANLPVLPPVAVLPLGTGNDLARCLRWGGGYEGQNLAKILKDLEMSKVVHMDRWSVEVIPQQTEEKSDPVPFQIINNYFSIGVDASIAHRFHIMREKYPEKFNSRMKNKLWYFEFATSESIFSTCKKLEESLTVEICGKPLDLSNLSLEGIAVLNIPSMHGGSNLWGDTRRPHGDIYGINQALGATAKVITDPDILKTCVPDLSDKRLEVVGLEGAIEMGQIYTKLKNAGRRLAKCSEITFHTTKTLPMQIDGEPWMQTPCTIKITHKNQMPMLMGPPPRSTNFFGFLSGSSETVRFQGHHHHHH

| Structure (SMILES) | IC50 (human DGKζ) [µM] | IC50 (human DGKα) [µM] |
| --- | --- | --- |
| COc1ccc(-c2cccc(N(C)c3nc(=O)n(C)c4ccc(C#N)nc34)c2)cc1 [Example 2, 4-((4′-methoxy-[1,1′-biphenyl]-3-yl)(methyl)amino)-1-methyl-2-oxo-1,2-dihydropyrido[3,2-d]pyrimidine-6-carbonitrile] | > 38 | > 38 |
| CN(c1cccc(-c2ccc(OC(F)(F)F)cc2)c1)c1nc(=O)n(C)c2ccc(C#N)nc12 [Example 3, 1-methyl-4-(methyl(4′-(trifluoromethoxy)-[1,1′-biphenyl]-3-yl)amino)-2-oxo-1,2-dihydropyrido[3,2-d]pyrimidine-6-carbonitrile] | > 38 | 1.8 |
| CN(c1cccc(-c2ccc(C3CC3)cc2)c1)c1cc(=O)n(C)c2ccc(C#N)nc12 [Example 4, 8-((4′-cyclopropyl-[1,1′-biphenyl]-3-yl)(methyl)amino)-5-methyl-6-oxo-5,6-dihydro-1,5-naphthyridine-2-carbonitrile] | > 38 | 0.049 |
| COc1ccc(-c2cccc(N(C)c3cc(=O)n(C)c4ccc(C#N)nc34)c2)cc1 [Example 5, 8-((4′-methoxy-[1,1′-biphenyl]-3-yl)(methyl)amino)-5-methyl-6-oxo-5,6-dihydro-1,5-naphthyridine-2-carbonitrile] | 32 | 0.18 |
| C#CCn1c(=O)c(C#N)c(N(C)C2CCCCC2)c2nc(Br)ccc21 [Example 16, 6-bromo-4-[cyclohexyl(methyl)amino]-2-oxo-1-(prop-2-yn-1-yl)-1,2-dihydro-1,5-naphthyridine-3-carbonitrile] | 12 |  |
| C#CCn1c(=O)c(C#N)c(N(C)C2CCCCC2)c2nc(C#N)ccc21 [Example 17, 8-[cyclohexyl(methyl)amino]-6-oxo-5-(prop-2-yn-1-yl)-5,6-dihydro-1,5-naphthyridine-2,7-dicarbonitrile] | 3.6 | 2 |
| CN(c1cc(=O)n(C)c2ccc(C#N)nc12)C1CCCCC1 [Example 19, 8-(cyclohexyl(methyl)amino)-5-methyl-6-oxo-5,6-dihydro-1,5-naphthyridine-2-carbonitrile] | 12 |  |
| Cc1ccc(N(C)c2cc(=O)n(C)c3ccc(C#N)nc23)cc1 [Example 20, 5-methyl-8-(methyl(p-tolyl)amino)-6-oxo-5,6-dihydro-1,5-naphthyridine-2-carbonitrile] | 36 | 0.73 |
| CN(c1cccc(C#N)c1)c1cc(=O)n(C)c2ccc(C#N)nc12 [Example 21, 8-((3-cyanophenyl)(methyl)amino)-5-methyl-6-oxo-5,6-dihydro-1,5-naphthyridine-2-carbonitrile] | > 125 |  |
| Cc1cccc(N(C)c2cc(=O)n(C)c3ccc(C#N)nc23)c1 [Example 22, 5-methyl-8-(methyl(m-tolyl)amino)-6-oxo-5,6-dihydro-1,5-naphthyridine-2-carbonitrile] | 4.7 | 1.3 |
| CN(c1ccc(F)cc1)c1cc(=O)n(C)c2ccc(C#N)nc12 [Example 23, 8-((4-fluorophenyl)(methyl)amino)-5-methyl-6-oxo-5,6-dihydro-1,5-naphthyridine-2-carbonitrile] | 4.9 | 0.11 |
| COc1ccc(N(C)c2cc(=O)n(C)c3ccc(C#N)nc23)cc1 [Example 24, 8-((4-methoxyphenyl)(methyl)amino)-5-methyl-6-oxo-5,6-dihydro-1,5-naphthyridine-2-carbonitrile] | 3.2 | 0.65 |
| Cc1ccccc1N(C)c1cc(=O)n(C)c2ccc(C#N)nc12 [Example 26, 5-methyl-8-(methyl(o-tolyl)amino)-6-oxo-5,6-dihydro-1,5-naphthyridine-2-carbonitrile] | 37 | 0.96 |
| CN(c1ccc(F)c(F)c1)c1cc(=O)n(C)c2ccc(C#N)nc12 [Example 28, 8-((3,4-difluorophenyl)(methyl)amino)-5-methyl-6-oxo-5,6-dihydro-1,5-naphthyridine-2-carbonitrile] | 120 | 0.44 |
| CN(c1ccc(Cl)cc1)c1cc(=O)n(C)c2ccc(C#N)nc12 [Example 29, 8-((4-chlorophenyl)(methyl)amino)-5-methyl-6-oxo-5,6-dihydro-1,5-naphthyridine-2-carbonitrile] | 17 | 0.45 |
| Cn1c(=O)cc(N(CC2CC2)c2ccc(C3CC3)cn2)c2nc(C#N)ccc21 [Example 46, 8-((cyclopropylmethyl)(5-cyclopropylpyridin-2-yl)amino)-5-methyl-6-oxo-5,6-dihydro-1,5-naphthyridine-2-carbonitrile] | 0.99 |  |

More lines, now with the values ahead:

| IC50 (human DGKζ) [µM] | IC50 (human DGKα) [µM] | Structure (SMILES) |
| --- | --- | --- |
| 7.1 |  | CC(C1CC1)N(C)c1c(C#N)c(=O)n(C)c2ccc(Br)nc12 (racemic) [Example 9, 6-bromo-4-((1-cyclopropylethyl)(methyl)amino)-1-methyl-2-oxo-1,2-dihydro-1,5-naphthyridine-3-carbonitrile] |
| 90 | 1.4 | CC(C1CC1)N(C)c1cc(=O)n(C)c2ccc(C#N)nc12 (racemic) [Example 32, 8-((1-cyclopropylethyl)(methyl)amino)-5-methyl-6-oxo-5,6-dihydro-1,5-naphthyridine-2-carbonitrile] |
| 21 |  | CN(c1c(C#N)c(=O)n(C)c2ccc(Br)nc12)C1CCCCC1 [Example 7, 6-bromo-4-[cyclohexyl(methyl)amino]-1-methyl-2-oxo-1,2-dihydro-1,5-naphthyridine-3-carbonitrile] |
| 31 |  | CC1CCC(N(C)c2c(C#N)c(=O)n(C)c3ccc(Br)nc23)CC1 (stereo not shown) [Example 8, 6-bromo-1-methyl-4-(methyl(4-methylcyclohexyl)amino)-2-oxo-1,2-dihydro-1,5-naphthyridine-3-carbonitrile] |
| 4 |  | CN(c1c(C#N)c(=O)n(C)c2ccc(C#N)nc12)C1CCCCC1 [Example 10, 8-[cyclohexyl(methyl)amino]-5-methyl-6-oxo-5,6-dihydro-1,5-naphthyridine-2,7-dicarbonitrile] |
| 7.3 |  | CC(C1CC1)N(C)c1c(C#N)c(=O)n(C)c2ccc(C#N)nc12 (stereo not shown) [Example 11, 8-[(1-cyclopropylethyl)(methyl)amino]-5-methyl-6-oxo-5,6-dihydro-1,5-naphthyridine-2,7-dicarbonitrile] |
| 84 |  | COc1ccc2c(n1)c(N(C)C1CCCCC1)c(C#N)c(=O)n2C [Example 12, 4-[cyclohexyl(methyl)amino]-6-methoxy-1-methyl-2-oxo-1,2-dihydro-1,5-naphthyridine-3-carbonitrile] |
| 2.7 | 0.29 | Cc1ccc2c(n1)c(N(C)C1CCCCC1)c(C#N)c(=O)n2C [Example 13, 4-[cyclohexyl(methyl)amino]-1,6-dimethyl-2-oxo-1,2-dihydro-1,5-naphthyridine-3-carbonitrile] |
| 29 |  | Cc1ccc2c(n1)c(N(C)C(C)C1CC1)c(C#N)c(=O)n2C (stereo not shown) [Example 14, 4-[(1-cyclopropylethyl)(methyl)amino]-1,6-dimethyl-2-oxo-1,2-dihydro-1,5-naphthyridine-3-carbonitrile] |
| 7.1 |  | CC(C1CC1)N(C)c1c(C#N)c(=O)n(C)c2ccc(CC#N)nc12 (stereo not shown) [Example 15, 6-(cyanomethyl)-4-[(1-cyclopropylethyl)(methyl)amino]-1-methyl-2-oxo-1,2-dihydro-1,5-naphthyridine-3-carbonitrile] |
